Earlier results as cited in patent US5702721A (LTS Lohmann Therapie-Systeme GmbH & Co. KG, priority 1989, dated 1997).

Conditions: supersaturated solution resulting on evaporation of the highly volatile component of a mixture of volatile and non-volatile solvents

Row | SMILES | skin penetration / resorption intensification
1 | C[C@]12C=CC(=O)C=C1[C@@H](F)C[C@H]1[C@@H]3C[C@@H](O)[C@](O)(C(=O)CO)[C@@]3(C)C[C@H](O)[C@@]12F [fluocinolone] | higher skin penetration
2 | COC(=O)C1=C(C)NC(C)=C(C(=O)OC)C1c1ccccc1[N+](=O)[O-] [nifedipine] | confirmed these effects
